{"source": "patent US8242203B2", "about": "“Covalently attached nile blue derivatives for optical sensors” (priority 2005, dated 2012)", "key": {"[1]": {"assay": "Leaching of chromoionophore from ISE membrane during conditioning and measurement", "type": "physicochemical", "details": "conditioning in contact with buffer and measurements", "method": "ISE Membrane Preparation and Measurements. ISE membranes were prepared by dissolving chromoionophore (10 mmol/kg), NaTFPB (2 mmol/kg), PVC and plasticizer (DOS or NPOE) to give a total cocktail mass of 140 mg in 1.5 mL of THF. The cocktail of the membrane with grafted chromoionophore contained 2 mmol/kg NaTFPB, 10 wt % MMA-DMA polymer with grafted indicators, PVC and plasticizer (DOS or NPOE). Cocktails were poured into glass rings (2.2 cm i.d.) affixed onto glass microscope slides.\nThe solvent was evaporated overnight to give a transparent membrane. The parent membranes were then conditioned for at least 12 hours in pH buffered solutions. For pH titrations, buffer solutions are 10 mM citric acid and 10 mM boric acid with the indicated concentrations of NaCl (either 10 mM or 0.1 mM) adjusted to pH 1.5 by 1 M standard HCl, or 10 mM phosphate buffer solution with NaCl as background. The solution was titrated with a 0.1 M standard NaOH solution and a pH electrode was used to monitor the sample pH. All experimental results given are the average of at least three electrodes, with calculated standard deviations.\nThe first polymerizable chromoionophore NB1 is a derivative of the highly basic oxazine-dye molecule Nile Blue attached to a acryloyloxybenzoyl group. The pH responses of NB1 based ion selective electrode (“ISE”) membranes were investigated first. […]"}, "[2]": {"details": "comparison value, cited from earlier work"}}, "note": "Read-outs that look alike come from different tables or passages of the source."}
{"smiles": "C=CC(=O)Oc1ccc(C(=O)/N=c2/cc3oc4cc(N(CC)CC)ccc4nc-3c3ccccc23)cc1", "note": "[NB1]", "values": [{"measurement": "leaching of the dye from the ISE membrane", "setting": "[1]", "result": "found to leach from the membrane"}]}
{"smiles": "CCCCCCCCCCCCCCCCCC(=O)N=c1cc2oc3cc(N(CC)CC)ccc3nc-2c2ccccc12", "note": "[ETH 5294, 9-(diethylamino)-5-octadecanoylimino-5H-benzo[a]phenoxazine]", "values": [{"measurement": "pKa", "setting": "[2]; PVC-DOS", "result": 11.4}, {"measurement": "pKa", "setting": "[2]; PVC-NPOE", "result": 14.8}]}
